According to patent US20080109040A1, “METHOD OF TREATING ARRHYTHMIAS” (priority 2002, published 2008):

System: arterially perfused canine left ventricular wedge preparation
Assay: Action potential and ECG studies in arterially-perfused canine left ventricular wedge preparations
Set-up: APD90 ± SE, M region / TDR / APD50 ± SE, M region / QTend: unit not given beside the values
Settings: for APD50 ± SE, Epicardium / APD50 ± SE, M region / APD90 ± SE, Epicardium / APD90 ± SE, M region / QTend / TDR / Tpeak-Tend: BCL = 2000; for Ranolazine-induced Torsade de Pointes, Spontaneous / Ranolazine-induced Torsade de Pointes, Stimulation-induced: ranolazine 1-100 μM
Description: Transmural left ventricular wedges with dimensions of approximately 12 mm×35 mm×12 mm were dissected from the mid-to-basal anterior region of the left ventricular wall and a diagonal branch of the left anterior descending coronary artery was cannulated to deliver the perfusate (Tyrode's solution). The composition of the Tyrode's solution was (in mM): […] A separate set of experiments were performed using Tyrode's solution containing 2 mM KCl. Transmembrane action potentials were recorded from epicardial (EPI) and Subendocardial regions (M) using floating microelectrodes. A transmural pseudo-electrocardiogram (ECG) was recorded using two K-Agar electrodes (1.1 mm, i.d.) placed at approx. 1 cm. from the epicardial (+) and endocardial (−) surfaces of the preparation and along the same axis as the transmembrane recordings. […] A constant flow rate was set before ischemia to reach a perfusion pressure of 40-50 mmHg. The temperature was maintained at 37±0.5° C. by heating the perfusate and a contiguous water-chamber that surrounded the tissue-chamber with the same heater/circulating bath. The top-uncovered part of the tissue-chamber was covered in each experiment to 75% of its surface with plastic sheets to further prevent heat loss; the remainder 25% was kept uncovered to position and maneuver the ECG electrodes and the floating microelectrodes. The preparations were fully immersed in the extracellular solution throughout the course of the experiment. The QT interval was defined as the time interval between the initial deflection of the QRS complex and the point at which a tangent drawn to the steepest portion of the terminal part of the T wave crossed the isoelectric line. Experimental Series 1: […] [K^+]o=4 mM. a. Steady-state stimulation: […] b. Programmed electrical stimulation (PES): Premature stimulation was applied to the epicardial surface before and after each concentration of drug in an attempt to induce arrhythmias. Single pulses (S2) were delivered once after every fifth or tenth basic beat (S1) at cycle lengths of 2000 msec. […] Experimental Series 2: […] [K^+]o=2 mM.

COc1ccccc1OCC(O)CN1CCN(CC(=O)Nc2c(C)cccc2C)CC1 (racemic) [ranolazine, N-(2,6-dimethylphenyl)-4-[2-hydroxy-3-(2-methoxyphenoxy)propyl]-1-piperazineacetamide]
APD50 ± SE, Epicardium (1 μM, 2 mM [KCl]0): 173 ± 2
APD50 ± SE, M region (1 μM, 2 mM [KCl]0): 210.7 ± 13.53
APD90 ± SE, Epicardium (1 μM, 2 mM [KCl]0): 232 ± 5.508
APD90 ± SE, M region (1 μM, 2 mM [KCl]0): 280.3 ± 12.72
QTend (1 μM, 2 mM [KCl]0): 311 ± 9.5
TDR (1 μM, 2 mM [KCl]0): 28.33 ± 11.46
Tpeak-Tend (1 μM, 2 mM [KCl]0): 35 ± 4.70
APD50 ± SE, Epicardium (1 μM, 4 mM [KCl]0): 176.3 ± 12.25
APD50 ± SE, M region (1 μM, 4 mM [KCl]0): 203.3 ± 9.621
APD90 ± SE, Epicardium (1 μM, 4 mM [KCl]0): 213.8 ± 13.28
APD90 ± SE, M region (1 μM, 4 mM [KCl]0): 254.3 ± 9.15
QTend (1 μM, 4 mM [KCl]0): 263.5 ± 10.56
TDR (1 μM, 4 mM [KCl]0): 26.75 ± 8.045
Tpeak-Tend (1 μM, 4 mM [KCl]0): 34.5 ± 3.202
APD50 ± SE, Epicardium (5 μM, 2 mM [KCl]0): 183.5 ± 1.5
APD50 ± SE, M region (5 μM, 2 mM [KCl]0): 205.7 ± 7.881
APD90 ± SE, Epicardium (5 μM, 2 mM [KCl]0): 252.5 ± 10.5
APD90 ± SE, M region (5 μM, 2 mM [KCl]0): 289.7 ± 2.848
QTend (5 μM, 2 mM [KCl]0): 319 ± 4.58
TDR (5 μM, 2 mM [KCl]0): 15 ± 7
Tpeak-Tend (5 μM, 2 mM [KCl]0): 33 ± 1.33
APD50 ± SE, Epicardium (5 μM, 4 mM [KCl]0): 176.5 ± 11.85
APD50 ± SE, M region (5 μM, 4 mM [KCl]0): 207.5 ± 8.627
APD90 ± SE, Epicardium (5 μM, 4 mM [KCl]0): 219 ± 12.12
APD90 ± SE, M region (5 μM, 4 mM [KCl]0): 258.3 ± 11.08
QTend (5 μM, 4 mM [KCl]0): 274.5 ± 13.73
TDR (5 μM, 4 mM [KCl]0): 36 ± 2.449
Tpeak-Tend (5 μM, 4 mM [KCl]0): 37.75 ± 4.09
APD50 ± SE, Epicardium (10 μM, 2 mM [KCl]0): 190 ± 2
APD50 ± SE, M region (10 μM, 2 mM [KCl]0): 208.3 ± 3.48
APD90 ± SE, Epicardium (10 μM, 2 mM [KCl]0): 265.5 ± 16.5
APD90 ± SE, M region (10 μM, 2 mM [KCl]0): 305.3 ± 4.978
QTend (10 μM, 2 mM [KCl]0): 329 ± 2.33
TDR (10 μM, 2 mM [KCl]0): 23.5 ± 1.5
Tpeak-Tend (10 μM, 2 mM [KCl]0): 36 ± 4.09
APD50 ± SE, Epicardium (10 μM, 4 mM [KCl]0): 170.5 ± 12.03
APD50 ± SE, M region (10 μM, 4 mM [KCl]0): 199 ± 9.083
APD90 ± SE, Epicardium (10 μM, 4 mM [KCl]0): 216.5 ± 13.41
APD90 ± SE, M region (10 μM, 4 mM [KCl]0): 260.3 ± 12.66
QTend (10 μM, 4 mM [KCl]0): 277.8 ± 14.99
TDR (10 μM, 4 mM [KCl]0): 30.75 ± 10.46
Tpeak-Tend (10 μM, 4 mM [KCl]0): 39.25 ± 5.54
APD50 ± SE, Epicardium (50 μM, 2 mM [KCl]0): 179 ± 1
APD50 ± SE, M region (50 μM, 2 mM [KCl]0): 214.3 ± 6.333
APD90 ± SE, Epicardium (50 μM, 2 mM [KCl]0): 276.5 ± 18.5
APD90 ± SE, M region (50 μM, 2 mM [KCl]0): 325.5 ± 5.5
QTend (50 μM, 2 mM [KCl]0): 343 ± 2.84
TDR (50 μM, 2 mM [KCl]0): 35.5 ± 3.5
Tpeak-Tend (50 μM, 2 mM [KCl]0): 41 ± 6.35
APD50 ± SE, Epicardium (50 μM, 4 mM [KCl]0): 159.5 ± 12.82
APD50 ± SE, M region (50 μM, 4 mM [KCl]0): 187.8 ± 11.21
APD90 ± SE, Epicardium (50 μM, 4 mM [KCl]0): 218 ± 15.91
APD90 ± SE, M region (50 μM, 4 mM [KCl]0): 257.5 ± 15.47
QTend (50 μM, 4 mM [KCl]0): 279.3 ± 17.21
TDR (50 μM, 4 mM [KCl]0): 32.5 ± 6.278
Tpeak-Tend (50 μM, 4 mM [KCl]0): 41.25 ± 8.37
APD50 ± SE, Epicardium (100 μM, 2 mM [KCl]0): 167.5 ± 0.5
APD50 ± SE, M region (100 μM, 2 mM [KCl]0): 187.7 ± 4.978
APD90 ± SE, Epicardium (100 μM, 2 mM [KCl]0): 293.5 ± 21.5
APD90 ± SE, M region (100 μM, 2 mM [KCl]0): 345 ± 14.36
QTend (100 μM, 2 mM [KCl]0): 376 ± 4.48
TDR (100 μM, 2 mM [KCl]0): 35 ± 11
Tpeak-Tend (100 μM, 2 mM [KCl]0): 55 ± 1.00
APD50 ± SE, Epicardium (100 μM, 4 mM [KCl]0): 152.5 ± 14.44
APD50 ± SE, M region (100 μM, 4 mM [KCl]0): 169 ± 10.5
APD90 ± SE, Epicardium (100 μM, 4 mM [KCl]0): 220.5 ± 18.26
APD90 ± SE, M region (100 μM, 4 mM [KCl]0): 247.8 ± 15.32
QTend (100 μM, 4 mM [KCl]0): 284.5 ± 14.39
TDR (100 μM, 4 mM [KCl]0): 23.75 ± 2.689
Tpeak-Tend (100 μM, 4 mM [KCl]0): 40.5 ± 4.94
Arrhythmias in the wedge preparation (any concentration of ranolazine): No arrhythmias were observed
Ranolazine-induced Torsade de Pointes, Spontaneous (2 mM [K+]0): 0/3
Ranolazine-induced Torsade de Pointes, Stimulation-induced (2 mM [K+]0): 0/3
Ranolazine-induced Torsade de Pointes, Spontaneous (4 mM [K+]0): 0/4
Ranolazine-induced Torsade de Pointes, Stimulation-induced (4 mM [K+]0): 0/4
Early or delayed afterdepolarizations (tissue or wedge preparations, any concentration of ranolazine): Neither early nor delayed afterdepolarizations were observed
